Tests used:
Assay type in all cases: functional, Cercopithecidae
COS-7 [1] = experiment: Transfection efficiency when the compound/DNA charge ratio was 11:1
COS-7 [2] = experiment: Transfection efficiency when the compound/DNA charge ratio was 13:1
COS-7 [3] = experiment: Transfection efficiency when the compound/DNA charge ratio was 15:1
COS-7 [4] = experiment: Transfection efficiency when the compound/DNA charge ratio was 1:1
COS-7 [5] = experiment: Transfection efficiency when the compound/DNA charge ratio was 3:1
COS-7 [6] = experiment: Transfection efficiency when the compound/DNA charge ratio was 5:1
COS-7 [7] = experiment: Transfection efficiency when the compound/DNA charge ratio was 9:1
COS-7 [8] = experiment: Transfection efficiency when the compound/DNA charge ratio was 7:1

SMILES	Transfection efficiency (COS-7 [1])	Transfection efficiency (COS-7 [2])	Transfection efficiency (COS-7 [3])	Transfection efficiency (COS-7 [4])	Transfection efficiency (COS-7 [5])	Transfection efficiency (COS-7 [6])	Transfection efficiency (COS-7 [7])	Transfection efficiency (COS-7 [8])
CC(C)CCCC(C)[C@H]1CC[C@H]2C3CC=C4C[C@@H](OC(=O)CCC(=O)NCCCN(C)C)CCC4(C)[C@H]3CCC12C (stereo partly specified)	8800 RLU (ug of protein)-1	7900 RLU (ug of protein)-1	8000 RLU (ug of protein)-1	12800 RLU (ug of protein)-1	37300 RLU (ug of protein)-1	22500 RLU (ug of protein)-1	9800 RLU (ug of protein)-1	14800 RLU (ug of protein)-1
CC(C)CCCC(C)[C@H]1CC[C@H]2C3CC=C4C[C@@H](OC(=O)OCC[N+](C)(C)CCO)CCC4(C)[C@H]3CCC12C (stereo partly specified)	8100 RLU (ug of protein)-1	5000 RLU (ug of protein)-1	5300 RLU (ug of protein)-1	17300 RLU (ug of protein)-1	83200 RLU (ug of protein)-1	25500 RLU (ug of protein)-1	8700 RLU (ug of protein)-1	10500 RLU (ug of protein)-1
CC(C)CCCC(C)[C@H]1CC[C@H]2C3CC=C4C[C@@H](OC(=O)OCC[N+](C)(C)C)CCC4(C)[C@H]3CCC12C (stereo partly specified)	3600 RLU (ug of protein)-1	2200 RLU (ug of protein)-1	2000 RLU (ug of protein)-1	48500 RLU (ug of protein)-1	97200 RLU (ug of protein)-1	77200 RLU (ug of protein)-1	11400 RLU (ug of protein)-1	45400 RLU (ug of protein)-1
CCCCCCCCCCCCCCOCC(COC(=O)C[N+](C)(C)C)OCCCCCCCCCCCCCC (stereo unspecified)	18700 RLU (ug of protein)-1	29400 RLU (ug of protein)-1	31400 RLU (ug of protein)-1	4200 RLU (ug of protein)-1	4100 RLU (ug of protein)-1	10000 RLU (ug of protein)-1	17700 RLU (ug of protein)-1	15100 RLU (ug of protein)-1
CC(C)CCCC(C)[C@H]1CC[C@H]2C3CC=C4C[C@@H](OC(=O)C[N+](C)(C)C)CCC4(C)[C@H]3CCC12C (stereo partly specified)	2800 RLU (ug of protein)-1	2000 RLU (ug of protein)-1	1700 RLU (ug of protein)-1	17000 RLU (ug of protein)-1	86600 RLU (ug of protein)-1	20100 RLU (ug of protein)-1	4300 RLU (ug of protein)-1	5300 RLU (ug of protein)-1
CC(C)CCCC(C)[C@H]1CC[C@H]2C3CC=C4C[C@@H](OC(=O)CN(C)C)CCC4(C)[C@H]3CCC12C (stereo partly specified)	3100 RLU (ug of protein)-1	2100 RLU (ug of protein)-1	3400 RLU (ug of protein)-1	6900 RLU (ug of protein)-1	4000 RLU (ug of protein)-1	1500 RLU (ug of protein)-1	2000 RLU (ug of protein)-1	1700 RLU (ug of protein)-1
CC(C)CCCC(C)[C@H]1CC[C@H]2C3CC=C4C[C@@H](OC(=O)CCC(=O)OCCCN(C)C)CCC4(C)[C@H]3CCC12C (stereo partly specified)	6000 RLU (ug of protein)-1	6100 RLU (ug of protein)-1	4700 RLU (ug of protein)-1	8000 RLU (ug of protein)-1	9200 RLU (ug of protein)-1	9200 RLU (ug of protein)-1	9100 RLU (ug of protein)-1	8900 RLU (ug of protein)-1
CC(C)CCCC(C)[C@H]1CC[C@H]2C3CC=C4C[C@@H](OC(=O)CCC(=O)OCCN(C)C)CCC4(C)[C@H]3CCC12C (stereo partly specified)	7500 RLU (ug of protein)-1	7200 RLU (ug of protein)-1	6700 RLU (ug of protein)-1	14000 RLU (ug of protein)-1	27000 RLU (ug of protein)-1	12200 RLU (ug of protein)-1	9600 RLU (ug of protein)-1	10600 RLU (ug of protein)-1
CCCCCCCCCCCCCCOCC(COC(=O)CN(C)C)OCCCCCCCCCCCCCC (stereo unspecified)	1000 RLU (ug of protein)-1	2500 RLU (ug of protein)-1	600 RLU (ug of protein)-1	3300 RLU (ug of protein)-1	8000 RLU (ug of protein)-1	5500 RLU (ug of protein)-1	1700 RLU (ug of protein)-1	600 RLU (ug of protein)-1
CC(C)CCCC(C)[C@H]1CC[C@H]2C3CC=C4C[C@@H](OC(=O)C[N+](C)(C)CCO)CCC4(C)[C@H]3CCC12C (stereo partly specified)	31100 RLU (ug of protein)-1	30000 RLU (ug of protein)-1	31000 RLU (ug of protein)-1	4300 RLU (ug of protein)-1	4800 RLU (ug of protein)-1	18500 RLU (ug of protein)-1	29600 RLU (ug of protein)-1	26500 RLU (ug of protein)-1
CC(C)CCCC(C)[C@H]1CC[C@H]2C3CC=C4C[C@@H](OC(=O)OCCN(C)C)CCC4(C)[C@H]3CCC12C (stereo partly specified)	15200 RLU (ug of protein)-1	10900 RLU (ug of protein)-1	7400 RLU (ug of protein)-1	40500 RLU (ug of protein)-1	93000 RLU (ug of protein)-1	76600 RLU (ug of protein)-1	24800 RLU (ug of protein)-1	41800 RLU (ug of protein)-1
CC(C)CCCC(C)[C@H]1CC[C@H]2C3CC=C4C[C@@H](OC(=O)CCC(=O)NCCN(C)C)CCC4(C)[C@H]3CCC12C (stereo partly specified)	75400 RLU (ug of protein)-1	54300 RLU (ug of protein)-1	36500 RLU (ug of protein)-1	17000 RLU (ug of protein)-1	41100 RLU (ug of protein)-1	94100 RLU (ug of protein)-1	98100 RLU (ug of protein)-1	108900 RLU (ug of protein)-1

From ChEMBL document CHEMBL1133337, “Synthesis and transfection properties of novel non-toxic monocationic lipids. Variation of lipid anchor, spacer and head group structure” (2000)
